Reference: US8497298B2, “Use of benzo-fused heterocycle sulfamide derivatives for lowering lipids and lowering blood glucose levels” (Janssen Pharmaceutica NV, priority 2005, dated 2013)

Assays:
db/db mice = assay: Female db/db Mouse Assay, Study A: single dose part and dose response part (Example 14); format: in vivo
Text: 0.5% Hydroxypropyl Methylcellulose (Methocel) used as vehicle/control.
Db/db mice are susceptible to Type 2 diabetes. […] All of the mice were quarantined for a period of one week before transfer to the animal procedure room. A drop of blood (about 2 microliters) was collected by tail puncture and glucose concentration was detected with a glucometer (OneTouch UltraSmart, Lifescan, Milpitas, Calif.). […] Animals were separated and single housed at least three days prior to the drug treatments to allow acclimation to the new surroundings.
In the second, dose response part of Study A, 48 mice were allocated into 4 treatment groups of 12 mice each.
The dosing volume was 5 mL/kg body weight (0.2 mL for 40 gram mice). The mice were fed ad lib throughout the study. A necropsy was completed 18 hours after last dosing.
Blood glucose levels were measured from blood collected through tail puncture using a glucometer at 1000 hour. The mice were anaesthetized with sodium pentobarbital (1 ml/kg, intraperitoneal [i.p.] injection, SleepAway, Fort Dodge, Iowa) and blood was drawn via cardiac puncture using 1 mL syringe and collected into heparinized tubes. White adipose tissues (WAT) (retroperitoneal and inguinal fat pads), brown adipose tissure (BAT) and skeletal muscles (gastrocnemius and soleus muscle) and stomach contents were dissected and weighed. Plasma samples were obtained by centrifuging whole blood at 2000˜3000 g for 10˜20 minutes at 4° C. and stored at −20° C. for further measurement of insulin, HDL, LDL, total cholesterol and triglyceride.
Plasma insulin concentrations were measured by in both studies using the appropriate rat/mouse insulin enzyme-linked immunosorbent assay (ELISA) kit (EZRMI-13K, LINCO Research, St. Charles, Mo.). Blood samples were diluted 1:4 in charcoal stripped mouse serum that was included in the ELISA kit. The rest of the procedure followed the manufacturers instruction. The total fluorescence was detected using an Orion 1 Microplate Luminometer (Berthold Detection Systems, Pforzheim, Germany).
According to manufacturers protocol, cholesterol measurement was an enzymatic method utilizing cholesterol esterase and cholesterol oxidase conversion followed by a Trinder endpoint; Elimination/catalase method was used for HDL measurement; an enzymatic method with a Trinder endpoint was used for triglyceride measurement.
Data from both parts of the Study (single dose and dose response) was analyzed using the standard two-tailed Student's t-test and are expressed below as means and standard errors.

[1] = single dose part, rosiglitazone 20 mg/kg
[2] = single dose part, rosiglitazone 20 mg/kg positive control
[3] = single dose part, rosiglitazone 20 mg/kg, plasma

melting point [°C]	Structure (SMILES)	total cholesterol concentrations elevated relative to vehicle (db/db mice; rosiglitazone, dose not given) [%]	Brown Adipose Tissue (db/db mice; [1]) [g]	Final weight Body weight (db/db mice; [1]) [g]	Final weight Stomach contents (db/db mice; [1]) [g]	Inguinal fat (db/db mice; [1]) [g]	Muscle (db/db mice; [1]) [g]	Retroperitoneal fat (db/db mice; [1]) [g]	Total chow consumption Day 1-3 (db/db mice; [1]) [g]	Total chow consumption Day 4-6 (db/db mice; [1]) [g]	Total chow consumption Day 7-9 (db/db mice; [1]) [g]	Glucose (db/db mice; [2]) [mg/dL]	Insulin (db/db mice; [2]) [ng/mL]	Cholesterol (db/db mice; [3]) [mg/dL]	HDL (db/db mice; [3]) [mg/dL]	LDL (db/db mice; [3]) [mg/dL]	Ratio (Triglyceride to HDL) (db/db mice; [3])	Triglyceride (db/db mice; [3]) [mg/dL]	Ratio (fat/muscle) (db/db mice; single dose part, rosiglitazone 20 mg/kg, total inguinal and retroperitoneal fat/muscle weight)	weight gain (db/db mice; single dose part, rosiglitazone, p<0.05 vs vehicle 0.3±0.2 g) [g]
100 to 101	NS(=O)(=O)NCC1CCc2ccccc2O1 (centres unmarked) [Compound #10, Chroman-2-ylmethylsulfamide]																			
	CN(CCOc1ccc(CC2SC(=O)NC2=O)cc1)c1ccccn1 (centres unmarked) [Rosiglitazone, rosiglitazone, reference compound]	35.1	0.32 ± 0.02	43 ± 1.0	0.32 ± 0.04	2.44 ± 0.11	0.154 ± 0.00	1.45 ± 0.10	21 ± 0.8	22 ± 0.9	19 ± 0.7	170 ± 23	11.2 ± 2.3	123 ± 8	62.5 ± 3.2	3.3 ± 0.3	1.6 ± 0.3	105 ± 23	25.4 ± 1.6	3.1 ± 0.4
